Test: PK study of SM components in plasma of AIA rats by UPLC-MS/MS (MG vs MPS group)
Conditions: for AUC 0-t / AUC 0-∞ / C max / T max / t 1/2 / AUC(0-inf) / Cmax / Tmax / half-life: then oral SM 39.2 g crude drug/kg, plasma, mean ± SEM; for Cmax: C max; for Tmax: T max; for Absorption under the intervention of PS: MPS vs MG group
[1] = MG group: AIA rats, saline 21 days
[2] = MPS group: AIA rats, oral PS 9.8 g crude drug/kg/day 21 days
[3] = Sprague-Dawley, rat, po, 39.2 g/kg/day, AUC 0-t, MG group: AIA rats, saline 21 days
[4] = Sprague-Dawley, rat, po, 39.2 g/kg/day, AUC 0-t, MPS group: AIA rats, oral PS 9.8 g crude drug/kg/day 21 days
[5] = Sprague-Dawley, rat, po, 39.2 g/kg/day, MG group: AIA rats, saline 21 days
[6] = Sprague-Dawley, rat, po, 39.2 g/kg/day, MPS group: AIA rats, oral PS 9.8 g crude drug/kg/day 21 days
[7] = Sprague-Dawley, rat, po, 39.2 g/kg/day, t 1/2, MG group: AIA rats, saline 21 days
[8] = Sprague-Dawley, rat, po, 39.2 g/kg/day, t 1/2, MPS group: AIA rats, oral PS 9.8 g crude drug/kg/day 21 days
[9] = MPS group compared with the MG group, AIA rats

Description: In the PK study, 12 SD rats were divided into model group (MG group) and model + polysaccharide group (MPS group). Rats in the MPS group were given PS (9.8 g crude drug/kg/day) by oral administration, while rats in the MG group received the same amount of saline. After continuous administration for 21 days, rats in both groups were given SM (39.2 g crude drug/kg/day), and two groups of rats were subjected to a PK study.
The supernatant was collected and dried with N2, redissolved with 100 μL methanol, and centrifuged again after 10 min centrifugation at 4 °C, 13000 rpm. Then the supernatant was collected for UPLC-MS /MS analysis.
The Shimadzu UPLC-MS/MS system was used for the PK study. […] The multiple reaction monitoring (MRM) mode was used both in positive and negative mode. The MS parameters were as follows: flow rate of heating gas 10 L/min, flow rate of drying gas 10 L/min, flow rate of atomizing gas 3 L/min, interfacial temperature 300 ℃, DL temperature 250 ℃.
Separation was performed using a Waters ACQUITY UPLC BEH C18 column (2.1 mm × 100 mm, 1.7 μm). The mobile phase was 0.1% formic acid water (v/v) (A) and acetonitrile (B).

Structure (SMILES) | AUC 0-t [1] [ng·h/mL] | AUC 0-∞ [1] [ng·h/mL] | C max [1] [ng/mL] | T max [1] [h] | t 1/2 [1] [h] | AUC 0-t [2] [ng·h/mL] | AUC 0-∞ [2] [ng·h/mL] | C max [2] [ng/mL] | T max [2] [h] | t 1/2 [2] [h] | AUC 0-t [4] [ng·h/mL] | AUC(0-inf) [5] [ng·h/mL] | AUC(0-inf) [6] [ng·h/mL] | Cmax [5] [ng/mL] | Cmax [6] [ng/mL] | Tmax [5] [h] | Tmax [6] [h] | half-life [8] [h] | Change of C max after oral PS [9] | Absorption under the intervention of PS (AIA rats) | other results
CCN1C[C@]2(COC)CC[C@H](OC)[C@]34C1[C@H](C[C@H]23)[C@@]1(O)C[C@H](OC)[C@H]2C[C@@H]4[C@@H]1[C@H]2O [Talatizamine] | 21.996 ± 1.581 | 30.766 ± 4.871 | 3.376 ± 0.595 | 0.417 ± 0.276 | 6.242 ± 1.838 | 22.338 ± 1.786 | 28.106 ± 2.545 | 3.576 ± 0.320 | 0.292 ± 0.093 | 5.163 ± 1.483 |  |  |  |  |  |  |  |  |  |  | 
CCN1C[C@]2(COC)CC[C@H](O)[C@]34C1[C@H]([C@H](OC)[C@H]23)[C@@]1(O)C[C@H](OC)[C@H]2C[C@@H]4[C@@H]1[C@H]2O [Neoline] | 7.417 ± 0.718 | 8.058 ± 0.838 | 3.221 ± 1.040 | 0.333 ± 0.118 | 3.245 ± 0.999 | 7.559 ± 0.880 | 7.980 ± 0.757 | 3.695 ± 1.005 | 0.250 ± 0.001 | 2.486 ± 0.349 |  |  |  |  |  |  |  |  |  |  | 
COC[C@]12CN(C)C3[C@@H]4[C@H](OC)[C@H]1[C@@]3([C@@H](OC)C[C@H]2O)[C@@H]1C[C@@]2(O)[C@H](OC(=O)c3ccccc3)[C@@H]1[C@]4(O)[C@@H](O)[C@@H]2OC [Benzoylmesaconitine] | 21.413 ± 1.140 | 23.447 ± 1.422 | 14.305 ± 3.689 | 0.139 ± 0.079 | 3.530 ± 0.873 | 25.368 ± 7.147 | 25.465 ± 7.145 | 15.899 ± 4.818 | 0.083 ± 0.001 | 1.723 ± 0.296 |  |  |  |  |  |  |  |  |  |  | 
O=C1C[C@@H](c2ccc(O)cc2)Oc2cc(O)ccc21 [Liquiritigenin] | 48.549 ± 6.497 | 49.404 ± 6.315 | 25.519 ± 7.560 | 0.139 ± 0.079 | 1.841 ± 0.242 | 47.195 ± 4.360 | 47.548 ± 4.374 | 23.367 ± 4.695 | 0.083 ± 0.001 | 1.448 ± 0.025 |  |  |  |  |  |  |  |  |  |  | 
CC1(C)[C@@H](O)CC[C@]2(C)[C@H]3C(=O)C=C4[C@@H]5C[C@@](C)(C(=O)O)CC[C@]5(C)CC[C@@]4(C)[C@]3(C)CC[C@@H]12 [Glycyrrhetinic acid] |  |  |  |  |  |  |  |  |  |  | 30500 | 32900 | 34500 | 7830 ± 283 | 11600 | 2 ± 0.001 | 2 ± 0.001 | 10.8 ± 1.96 |  |  | AUC 0-t [3]: 28800 ng·h/mL; half-life [7]: 10.7 ± 3.72 h
COC[C@@]12CC[C@H](OC)[C@]34C([C@H]([C@H](OC)[C@H]13)[C@]1(O)[C@H]3[C@@H](OC(=O)c5ccccc5)[C@](O)(C[C@H]34)[C@@H](OC)[C@@H]1O)N(C)C2 [Benzoylhypaconine] | 1.018 ± 0.049 | 1.123 ± 0.062 | 0.467 ± 0.108 | 0.083 ± 0.001 | 3.938 ± 0.322 | 1.394 ± 0.255 | 1.604 ± 0.229 | 0.861 ± 0.160 | 0.083 ± 0.001 | 4.742 ± 0.904 |  |  |  |  |  |  |  |  | increased | increased | Change of AUC 0-∞ after oral PS [9]: increased
COc1ccc(-c2coc3cc(O[C@@H]4O[C@H](CO)[C@@H](O)[C@H](O)[C@H]4O)ccc3c2=O)cc1O [Calycosin-7-glycoside] | 17.473 ± 2.858 | 18.097 ± 2.629 | 17.607 ± 2.640 | 0.110 ± 0.062 | 2.342 ± 0.959 | 15.987 ± 2.778 | 16.625 ± 2.476 | 15.506 ± 2.308 | 0.083 ± 0.001 | 2.113 ± 0.779 |  |  |  |  |  |  |  |  |  |  | 
CC1(C)[C@@H](O[C@H]2O[C@H](C(=O)O)[C@@H](O)[C@H](O)[C@H]2O[C@@H]2O[C@H](C(=O)O)[C@@H](O)[C@H](O)[C@H]2O)CC[C@]2(C)[C@H]3C(=O)C=C4[C@@H]5C[C@@](C)(C(=O)O)CC[C@]5(C)CC[C@@]4(C)[C@]3(C)CC[C@@H]12 [Glycyrrhizic acid] |  |  |  |  | 7.605 ± 1.142 |  |  |  |  |  | 29600 | 25900 | 27400 | 3800 ± 304 | 5200 ± 706 | 0.5 ± 0.001 | 0.667 ± 0.236 | 7.25 ± 0.086 | significantly increased | increased | AUC 0-t [3]: 23100 ng·h/mL
O=C(/C=C/c1ccc(O)cc1)c1ccc(O)cc1O [Isoliquiritigenin] |  |  |  |  |  |  |  |  |  |  | 9.47 ± 1.45 | 9.61 ± 1.6 | 10.5 ± 1.27 | 4 ± 0.545 | 5.42 ± 0.422 | 0.083 ± 0.001 | 0.167 ± 0.083 | 3.87 ± 0.889 | significantly increased | increased | AUC 0-t [3]: 8.76 ± 1.42 ng·h/mL; half-life [7]: 3.12 ± 0.571 h
COc1ccc(-c2coc3cc(O)ccc3c2=O)cc1 [Formononetin] | 15.278 ± 1.823 |  |  |  |  |  |  |  |  |  | 12.3 ± 1.98 | 17.5 ± 1.69 | 13.6 ± 1.93 | 7.39 ± 1.16 | 4.5 ± 0.902 | 0.083 ± 0.001 | 0.25 ± 0.001 | 3.76 ± 0.557 | reduced | decreased | half-life [7]: 4.27 ± 0.406 h
C[C@]12C[C@@H](O)[C@@H]3C[C@@]1(O[C@@H]1O[C@H](CO)[C@@H](O)[C@H](O)[C@H]1O)[C@@]3(COC(=O)c1ccccc1)C(=O)O2 [Albiflorin] | 424.990 ± 55.691 | 458.506 ± 69.994 | 287.831 ± 42.177 | 0.250 ± 0.001 | 2.488 ± 0.458 | 644.268 ± 174.084 | 698.946 ± 175.788 | 306.851 ± 57.880 | 0.139 ± 0.072 | 1.669 ± 0.080 |  |  |  |  |  |  |  |  |  | increased | Change of AUC 0-t after oral PS [9]: increased; Change of AUC 0-∞ after oral PS [9]: increased
CCN1C[C@]2(COC)[C@H](O)C[C@H](OC)[C@@]34[C@@H]5C[C@@]6(O)[C@H](OC(=O)c7ccccc7)[C@@H]5[C@@](O)([C@@H]([C@H](OC)[C@H]23)[C@@H]14)[C@@H](O)[C@@H]6OC [Benzoylaconine] | 0.764 ± 0.082 | 1.015 ± 0.158 | 0.548 ± 0.178 | 0.125 ± 0.072 | 7.430 ± 5.148 | 1.064 ± 0.136 | 1.202 ± 0.128 | 0.720 ± 0.116 | 0.083 ± 0.001 | 3.875 ± 1.842 |  |  |  |  |  |  |  |  |  |  | 

Reference: PMC10787407, “Regulation of polysaccharide in Wu‐tou decoction on intestinal microflora and pharmacokinetics of small molecular compounds in AIA rats” (Chinese Medicine, 2024)
